Data on one compound can be found in patent US20090318568A1, “ADHERENT COATING FOR TISSUE SURFACE AND/OR TRANS-TISSUE SURFACE SUBSTANCE DELIVERY” (priority 2009, published 2009).

A short description of data set [1]: Analysis of the paclitaxel residue dissolved in 1,2-propylene glycol. It is filed as physicochemical. As to conditions: 100 g 1,2-propylene glycol, 135° C. for 45 min. The procedure:
The residue from filtering the glycerol solution of EXAMPLE 1 was added to 100 g of 1,2-propylene glycol, and the resulting mixture warmed to 50° C.; little of the solid material appeared to dissolve. The mixture was then placed in an oven at 135° C. and heated for 45 min.

Data set [2] in a line: Analysis of the filtered paclitaxel solution in glycerol + 1,2-propylene glycol. It counts as physicochemical. As to conditions: 100 mg paclitaxel in 100 g USP glycerol warmed to about 50° C. On the procedure:
To this mixture, 60 g of 1,2-propylene glycol was added; the new mixture was mixed, and warmed further.

In data set [1], `CC(=O)O[C@H]1C(=O)[C@@]2(C)[C@H]([C@H](OC(=O)c3ccccc3)[C@]3(O)C[C@H](OC(=O)[C@H](O)[C@@H](NC(=O)c4ccccc4)c4ccccc4)C(C)=C1C3(C)C)[C@]1(OC(C)=O)CO[C@@H]1C[C@@H]2O` [paclitaxel] displayed a concentration in solution of 230 µg/mL. The “dissolution in glycerol (observation)” value in data set [2] was “little of the paclitaxel appeared to dissolve”.
